Entries after “also recorded” stand apart in the source; their conditions may differ.
What was measured:
EAE = EAE model of multiple sclerosis; type: in vivo, mouse; conditions: daily DI administration
[1] = system: human primary keratinocytes; assay: Viability of primary keratinocytes (propidium iodide, flow cytometry); type: cell-based; conditions: DI 12 h
Method: For ROS measurements, cells were treated with DI (250 μM), loaded with 10 μM CM-H2DCFDA (Invitrogen) at RT for 30 min in Hank's balanced salt solution (HBSS). After incubation, cell were rinsed with warm HBSS, harvested and directly analyzed. Mean fluorescent intensity (MFI) of living cells is shown. For Nfkbiz 3′UTR reporter analysis GFP signal was determined in live cells. For analysis of cell viability cells were stained with propidium iodide (1 μg/mL) and percentage of negative cells was plotted. Cells were acquired on CantoII or LSRII flow cytometers (Becton Dickinson), and data were analyzed with FlowJo v.9.5.2 software (Tree Star). For gating strategy see e.g., FIG. 25.
Primary keratinocytes were isolated from C57BL/6 WT newborn mice or human foreskins as previously described. 2×10^5 cells in 1 ml of KFSM media (Gibco cat #10725-018) [Ca2+ at 0.05 mM (mouse) and 0.09 mM (human)] were plated in 12-well tissue culture plates. After 2-3 days of cultivation, mouse or human cells were treated with DI for 12 hours and then stimulated with mouse recombinant IL-17A (100 ng/mL; cat #421-ML, R&D Systems) or human recombinant IL-17A (100 ng/mL; cat #7955-IL, R&D Systems) for 4 h or as indicated.

[2] = system: IκBζ target genes (Defb4, S100a7a, Lcn2, S100a9); assay: IκBζ target gene expression in IL-17A-stimulated human keratinocytes (qPCR); type: cell-based; conditions: DI 12 h
Method: RNA from cultured cells was isolated using a Total RNA I kit (OMEGA). RNA from mouse ear skin was extracted using RNAeasy mini kit (Qiagen) after tissue disruption with sterile zirconium beads on a MagNA Lyser (Roche). Isolated RNA was reverse transcribed using AffinityScript Multi-Temp reverse transcriptase (Agilent Technologies) according to the manufacturer's protocol. Reactions were performed in 96-well plates using a SYBR Green PCR Master mix (Thermo Fisher Scientific) using a LightCycler® 96 or LightCycler® 480 (Roche Diagnostics). All assays were performed at least in duplicates, and reaction mixtures in 20 μL volumes (96-plate) or 10 μL volumes (384-plate) were processed under the following cycling conditions: initial 10 min denaturation at 95° C., followed by 40 cycles at 95° C. for 10 s, 60° C. for 1 min. Threshold cycle (CT) values for each sample were determined by automated threshold analysis. Expression levels of all mRNAs were normalized to reference gene Actb in BMDMs or to Rpl19 in mouse keratinocytes and tissue samples; to ACTB in human blood monocytes or RPLP0 in human keratinocytes. The relative increase in the expression level of a gene was normalized to the level of expression in unstimulated control cells in each experiment. IκBζ-dependent genes selected for analysis in macrophages were previously published. […]

BMDMs = assay: Glutathione (GSH) measurement in BMDMs; type: cell-based, mouse; conditions: DI 250 μM
Method: Total GSH concentration in cells was determined by GSH/GSSH Ratio Detection Assay Kit (Abeam) according to manufacturer protocol. Briefly, 106 BMDMs were lysed in 100 μL of 0.5% NP-40 in PBS, pH 6. Samples were deproteinized using trichloroacetic acid and neutralized by addition of 1M NaHCO3 to achieve pH 4-6. Collected extracts were diluted with supplied assay buffer and directly used for GSH measurement.

Nrf2 = Nrf2 response in BMDMs (western blot, target genes); type: cell-based, mouse; conditions: 12 h treatment
Method: BMDM were prepared from 6- to 12-week-old mice as described 1 and cultured in RMPI-1640 medium supplemented with 10% fetal bovine serum (FBS), 2 mM L-glutamine, and 100 U/mL penicillin-streptomycin and mouse recombinant M-CSF ([…], Peprotech). For experiments, cells were seeded at concentration 10^6 cells/mL in tissue culture plates of various formats. The cells were treated with DI (250 μM (unless stated otherwise), cat #592498, Sigma), DMF (50 μM (unless stated otherwise), cat #242926, Sigma), 3-(ethoxycarbonyl)but-3-enoic acid (3MI, 5 μM, Aris Pharmaceuticals Inc.), 4-ethoxy-2-methylene-4-oxobutanoic acid (MI, Aris Pharmaceuticals Inc.) for 12 h and activated with lipopolysaccharide (LPS; 100 ng/mL; E. coli 0111:B4, Sigma) for 1 h or as indicated. In some experiments cells were stimulated with combination of LPS (20 ng/mL) and IFN-γ (50 ng/mL; Peprotech). In some experiments cells were treated with α-tocopherol (AT, 10 μM; Sigma), MitoTEMPO (MT, 500 μM; Sigma), N-acetylcysteine (NAC, 1 mM, Sigma), ethylester of GSH (EtGSH; 1 mM, Santa Cruz) or buthionene sulfoximine (BSO, 500 μM, Sigma) alone or in combination with DI for 12 h. […]
Cells were lysed in RIPA Lysis Buffer System (Santa Cruz) and heat-denatured at 95° C. for 5 min in reducing sample buffer (BioRad). […] Non-specific binding was blocked with 5% skim milk (or 5% BSA when phospho-proteins were analyzed), and membranes were probed with primary antibodies specific to Nrf2 (#12721), HO-1 (#70081), IκBζ (mouse specific, #93726), IκBζ(#9244), ATF3 (#D2Y5W), IRAK1 (#4504; sensitivity of IRAK1 detection diminishes upon IRAK1 K63 ubiquitination), phospho-IKK (Ser176/180, #2697), p62/SQSTM1 (#5114), phospho-eIF2α (Ser51, #9721), eIF2α (#5324) from Cell Signaling; GAPDH (sc-25778), IκBα (sc-1643), ATF3 (sc-188), SDHA (sc-166909) from Santa Cruz; NQO1 (ab28947) from Abeam, followed by incubation with anti-rabbit-HRP (1:10,000; sc-2030) or anti-mouse-HRP (1:10,000; sc-2031) from Santa Cruz and Clarity western ECL substrate (Bio-Rad). […]

C=C(CC(=O)OC)C(=O)OC [DI, dimethyl itaconate]
clinical development of EAE (EAE): ameliorated; also recorded: prevented clinical development of EAE | viability of primary keratinocytes [1]: not affected | expression of IL-17A signature / IκBζ target genes [2]: also inhibited; also recorded: downregulated | GSH/GSSG ratio (BMDMs): substantial drop | cellular GSH (BMDMs): substantial drop in cellular GSH; also recorded: substantial drop of cellular GSH concentration | Nrf2 response (Nrf2 protein, target genes) (Nrf2): triggered strong Nrf2 response; also recorded: increased
